# The source made the active and inactive calls. The rule behind the calls is not given here.
# How the values were obtained:
# Rattus norvegicus [1] = experiment: Antihyperlipidemic effect in STZ-induced type 2 diabetes male Wistar albino rat model assessed as triglyceride level at 10 mg/kg, po measured after 4 weeks (reference value: 190.23 +/- 4.37 mg/dL); type: functional
# Rattus norvegicus [2] = experiment: Antihyperlipidemic effect in STZ-induced type 2 diabetes male Wistar albino rat model assessed as total cholesterol level at 10 mg/kg, po measured after 4 weeks (reference value: 227.04 +/- 4.10 mg/dL); type: functional
# Rattus norvegicus [3] = experiment: Anti-diabetic activity in normal Wistar rat model assessed as blood glucose level at 10 mg/kg, po followed by treated administered 3 mg/kg orally measured after 90 mins by Oral glucose tolerance test (reference value: 134.11 + /- 4.64 mg/dL); type: functional; settings: 1.5 h
# Rattus norvegicus [4] = experiment: Reduction of alkaline phosphatase (ALP) level in STZ-induced type 2 diabetes male Wistar albino rat model at 20 mg/kg, po measured after 4 weeks by hepatic function test; type: functional, organism-based
# Rattus norvegicus [5] = experiment: Reduction of serum glutamate oxaloacetate transaminase (SGOT) level in STZ-induced type 2 diabetes male Wistar albino rat model at 10 mg/kg, po measured after 4 weeks by hepatic function test; type: functional, organism-based
# Rattus norvegicus [6] = experiment: Anti-diabetic activity in normal Wistar rat model assessed as blood glucose level at 20 mg/kg, po followed by treated administered 3 mg/kg orally measured after 120 mins by Oral glucose tolerance test (reference value: 126.5 + /- 3.90 mg/dL); type: functional; settings: 2 h
# Dipeptidyl peptidase 4 = Dipeptidyl peptidase 4 (Homo sapiens, UniProt P27487); experiment: Inhibition of DPP4 (unknown origin) assessed as hydrolysis rate using Gly-pro-p-nitroanilide as substrate measured after 20 mins incubation by fluorometric assay
# Rattus norvegicus [7] = experiment: Anti-diabetic activity in STZ-induced type 2 diabetes male Wistar albino rat model assessed as fasting blood glucose level at 20 mg/kg, po measured on day 7; type: functional; settings: time 7 day
# Rattus norvegicus [8] = experiment: Anti-diabetic activity in STZ-induced type 2 diabetes male Wistar albino rat model assessed as fasting blood glucose level at 20 mg/kg, po measured on day 14; type: functional; settings: time 14 day
# [9] = Acute toxicity in Balb/C mouse assessed as morphological changes in diarrhea at 1250 to 2000 mg/kg, po; type: organism-based; settings: in vivo, dose 1250-2000 mg/kg
# Rattus norvegicus [10] = experiment: Anti-diabetic activity in normal Wistar rat model assessed as blood glucose level at 10 mg/kg, po followed by treated administered 3 mg/kg orally measured after 60 mins by Oral glucose tolerance test (reference value: 153.74 + /- 3.94 mg/dL); type: functional; settings: 1 h
# Rattus norvegicus [11] = experiment: Antihyperlipidemic effect in STZ-induced type 2 diabetes male Wistar albino rat model assessed as total cholesterol level at 20 mg/kg, po measured after 4 weeks (reference value: 227.04 +/- 4.10 mg/dL); type: functional
# [12] = Acute toxicity in Balb/C mouse assessed as morphological changes in nose at 1250 to 2000 mg/kg, po; type: organism-based; settings: in vivo, dose 1250-2000 mg/kg
# Rattus norvegicus [13] = experiment: Reduction of serum glutamate pyruvate transaminase (SGPT) level in STZ-induced type 2 diabetes male Wistar albino rat model at 20 mg/kg, po measured after 4 weeks by hepatic function test; type: functional, organism-based
# Rattus norvegicus [14] = experiment: Antihyperlipidemic effect in STZ-induced type 2 diabetes male Wistar albino rat model assessed as HDL level at 10 mg/kg, po measured after 4 weeks (reference value: 25.54 +/- 2.62 mg/dL); type: functional
# Rattus norvegicus [15] = experiment: Anti-diabetic activity in normal Wistar rat model assessed as blood glucose level at 20 mg/kg, po followed by treated administered 3 mg/kg orally measured after 60 mins by Oral glucose tolerance test (reference value: 153.74 + /- 3.94 mg/dL); type: functional; settings: 1 h
# Rattus norvegicus [16] = experiment: Anti-diabetic activity in normal Wistar rat model assessed as blood glucose level at 10 mg/kg, po followed by treated administered 3 mg/kg orally measured after 120 mins by Oral glucose tolerance test (reference value: 126.5 + /- 3.90 mg/dL); type: functional; settings: 2 h
# Rattus norvegicus [17] = experiment: Antihyperlipidemic effect in STZ-induced type 2 diabetes male Wistar albino rat model assessed as LDL level at 10 mg/kg, po measured after 4 weeks (reference value: 184.65 +/- 4.57 mg/dL); type: functional
# [18] = Acute toxicity in Balb/C mouse assessed as morphological changes in salvation at 1250 to 2000 mg/kg, po; type: organism-based; settings: in vivo, dose 1250-2000 mg/kg
# Rattus norvegicus [19] = experiment: Anti-diabetic activity in STZ-induced type 2 diabetes male Wistar albino rat model assessed as fasting blood glucose level at 20 mg/kg, po measured on day 1; type: functional; settings: time 1 day
# Rattus norvegicus [20] = experiment: Reduction of insulin level in STZ-induced type 2 diabetes male Wistar albino rat model at 20 mg/kg, po measured after 4 weeks by hepatic function test; type: functional, organism-based
# Rattus norvegicus [21] = experiment: Reduction of alkaline phosphatase (ALP) level in STZ-induced type 2 diabetes male Wistar albino rat model at 10 mg/kg, po measured after 4 weeks by hepatic function test; type: functional, organism-based
# Rattus norvegicus [22] = experiment: Anti-diabetic activity in STZ-induced type 2 diabetes male Wistar albino rat model assessed as fasting blood glucose level at 20 mg/kg, po measured on day 28; type: functional; settings: time 28 day
# Rattus norvegicus [23] = experiment: Anti-diabetic activity in normal Wistar rat model assessed as blood glucose level at 10 mg/kg, po followed by treated administered 3 mg/kg orally measured immediately after administration by Oral glucose tolerance test (reference value: 105.12 mg/dL); type: functional
# [24] = Acute toxicity in Balb/C mouse assessed as morphological changes in tremors at 1250 to 2000 mg/kg, po; type: organism-based; settings: in vivo, dose 1250-2000 mg/kg
# Rattus norvegicus [25] = experiment: Anti-diabetic activity in normal Wistar rat model assessed as blood glucose level at 20 mg/kg, po followed by treated administered 3 mg/kg orally measured after 90 mins by Oral glucose tolerance test (reference value: 134.11 + /- 4.64 mg/dL); type: functional; settings: 1.5 h
# Rattus norvegicus [26] = experiment: Antihyperlipidemic effect in STZ-induced type 2 diabetes male Wistar albino rat model assessed as LDL level at 20 mg/kg, po measured after 4 weeks (reference value: 184.65 +/- 4.57 mg/dL); type: functional
# Rattus norvegicus [27] = experiment: Anti-diabetic activity in STZ-induced type 2 diabetes male Wistar albino rat model assessed as fasting blood glucose level at 20 mg/kg, po measured on day 21; type: functional; settings: time 21 day
# Rattus norvegicus [28] = experiment: Reduction of serum glutamate oxaloacetate transaminase (SGOT) level in STZ-induced type 2 diabetes male Wistar albino rat model at 20 mg/kg, po measured after 4 weeks by hepatic function test; type: functional, organism-based
# [29] = Acute toxicity in Balb/C mouse assessed as morphological changes in convulsions at 1250 to 2000 mg/kg, po; type: organism-based; settings: in vivo, dose 1250-2000 mg/kg
# Dipeptidyl peptidase 9 = Dipeptidyl peptidase 9 (Homo sapiens, UniProt Q86TI2); experiment: Inhibition of DPP9 (unknown origin) assessed as hydrolysis rate using Gly-pro-p-nitroanilide as substrate measured after 20 mins incubation by […] assay
# [30] = Acute toxicity in Balb/C mouse assessed as morphological changes in unusual behavior at 1250 to 2000 mg/kg, po; type: organism-based; settings: in vivo, dose 1250-2000 mg/kg
# [31] = Acute toxicity in Balb/C mouse assessed as morphological changes in fur at 1250 to 2000 mg/kg, po; type: organism-based; settings: in vivo, dose 1250-2000 mg/kg
# [32] = Acute toxicity in Balb/C mouse assessed as morphological changes in eyes at 1250 to 2000 mg/kg, po; type: organism-based; settings: in vivo, dose 1250-2000 mg/kg
# Sequence of Dipeptidyl peptidase 4 (P27487 whole entry): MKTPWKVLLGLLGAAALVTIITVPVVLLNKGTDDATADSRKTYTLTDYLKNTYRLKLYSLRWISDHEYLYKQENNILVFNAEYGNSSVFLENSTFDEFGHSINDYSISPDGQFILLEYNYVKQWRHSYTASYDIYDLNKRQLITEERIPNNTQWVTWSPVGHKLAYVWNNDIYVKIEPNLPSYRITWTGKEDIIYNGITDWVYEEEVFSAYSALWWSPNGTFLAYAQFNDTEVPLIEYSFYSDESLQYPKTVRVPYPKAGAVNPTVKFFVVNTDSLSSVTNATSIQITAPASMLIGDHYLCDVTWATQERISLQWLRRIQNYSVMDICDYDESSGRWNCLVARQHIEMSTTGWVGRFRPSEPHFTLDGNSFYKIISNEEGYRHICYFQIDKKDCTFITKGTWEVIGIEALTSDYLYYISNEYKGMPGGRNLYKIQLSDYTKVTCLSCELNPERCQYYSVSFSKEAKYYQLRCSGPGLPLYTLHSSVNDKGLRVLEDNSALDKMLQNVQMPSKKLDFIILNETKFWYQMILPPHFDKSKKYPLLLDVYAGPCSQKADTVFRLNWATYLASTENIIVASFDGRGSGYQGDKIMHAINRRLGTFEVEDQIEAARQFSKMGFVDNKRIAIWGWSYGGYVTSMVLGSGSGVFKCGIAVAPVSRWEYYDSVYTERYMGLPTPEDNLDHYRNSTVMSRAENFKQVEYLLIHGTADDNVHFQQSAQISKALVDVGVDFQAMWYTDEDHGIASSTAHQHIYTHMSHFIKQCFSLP
# Sequence of Dipeptidyl peptidase 9 (Q86TI2 whole entry): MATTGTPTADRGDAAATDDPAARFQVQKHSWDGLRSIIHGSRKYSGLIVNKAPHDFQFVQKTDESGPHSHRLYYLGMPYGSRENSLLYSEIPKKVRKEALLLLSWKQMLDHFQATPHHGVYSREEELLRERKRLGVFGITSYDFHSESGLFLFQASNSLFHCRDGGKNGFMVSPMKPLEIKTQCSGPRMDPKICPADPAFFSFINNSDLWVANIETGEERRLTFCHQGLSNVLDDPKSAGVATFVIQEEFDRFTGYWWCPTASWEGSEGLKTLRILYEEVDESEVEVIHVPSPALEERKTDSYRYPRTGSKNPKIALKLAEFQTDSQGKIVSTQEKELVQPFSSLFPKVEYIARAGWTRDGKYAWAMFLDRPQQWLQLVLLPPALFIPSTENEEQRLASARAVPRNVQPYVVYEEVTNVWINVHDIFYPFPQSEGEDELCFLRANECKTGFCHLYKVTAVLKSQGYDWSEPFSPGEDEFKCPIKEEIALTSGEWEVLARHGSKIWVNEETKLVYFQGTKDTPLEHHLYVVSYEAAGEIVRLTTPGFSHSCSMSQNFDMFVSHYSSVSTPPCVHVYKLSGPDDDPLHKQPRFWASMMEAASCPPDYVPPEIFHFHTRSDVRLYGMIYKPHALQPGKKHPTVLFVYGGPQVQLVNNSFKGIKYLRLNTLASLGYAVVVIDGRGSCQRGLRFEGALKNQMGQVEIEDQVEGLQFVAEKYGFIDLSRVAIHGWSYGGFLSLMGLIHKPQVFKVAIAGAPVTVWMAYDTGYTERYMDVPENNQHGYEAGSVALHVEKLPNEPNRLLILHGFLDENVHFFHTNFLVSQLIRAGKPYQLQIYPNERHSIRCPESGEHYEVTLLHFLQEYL
structure (smiles),measurement,setting,value
CC1=C([N+](=O)[O-])C(c2ccc(F)c(F)c2)N=C(N)N1C(=O)CN1Cc2cn(S(C)(=O)=O)nc2C1 (centres undefined),Activity,Rattus norvegicus [1],150.32 mg/dL
same,Activity,Rattus norvegicus [2],153.02 mg/dL
same,Activity,Rattus norvegicus [3],113.96 mg/dL
same,Activity,Rattus norvegicus [4],Active
same,Activity,Rattus norvegicus [5],Active
same,Activity,Rattus norvegicus [6],111.56 mg/dL
same,IC50,Dipeptidyl peptidase 4,55 nM
same,Activity,Rattus norvegicus [7],188 mg/dL
same,Activity,Rattus norvegicus [8],167 mg/dL
same,Activity,[9],Non-Toxic
same,Activity,Rattus norvegicus [10],118.35 mg/dL
same,Activity,Rattus norvegicus [11],137.34 mg/dL
same,Activity,[12],Non-Toxic
same,Activity,Rattus norvegicus [13],Active
same,Activity,Rattus norvegicus [14],46.32 mg/dL
same,Activity,Rattus norvegicus [15],115.22 mg/dL
same,Activity,Rattus norvegicus [16],115.78 mg/dL
same,Activity,Rattus norvegicus [17],135.67 mg/dL
same,Activity,[18],Non-Toxic
same,Activity,Rattus norvegicus [19],294 mg/dL
same,Activity,Rattus norvegicus [20],Active
same,Activity,Rattus norvegicus [21],Active
same,Activity,Rattus norvegicus [22],117 mg/dL
same,Activity,Rattus norvegicus [23],103.57 mg/dL
same,Activity,[24],Non-Toxic
same,Activity,Rattus norvegicus [25],110.57 mg/dL
same,Activity,Rattus norvegicus [26],114.54 mg/dL
same,Activity,Rattus norvegicus [27],134 mg/dL
same,Activity,Rattus norvegicus [28],Active
same,Activity,[29],Non-Toxic
same,IC50,Dipeptidyl peptidase 9,864 nM
same,Activity,[30],Non-Toxic
same,Activity,[31],Non-Toxic
same,Activity,[32],Non-Toxic

# Source: ChEMBL document CHEMBL6127049, “Discovery of the selective and nanomolar inhibitor of DPP-4 more potent than sitagliptin by structure-guided rational design” (Eur J Med Chem, 2024)
